# Source: US20250051356A1, “RIFABUTIN ANALOGS FOR THE TREATMENT OF DISEASE” (priority 2021, published 2025)
# Legend:
# Format in all cases: cell-based
# [1] = tested on: M. abscessus subsp. abscessus ATCC 19977; assay: MIC against M. abscessus in Middlebrook 7H9 + ADC; details: 7H9 + ADC
# [2] = tested on: M. abscessus subsp. abscessus CCUG 71636; assay: MIC against M. abscessus isolate in 7H9 + ADC; details: 7H9 + ADC
# [3] = tested on: M. abscessus subsp. abscessus CCUG 71382; assay: MIC against M. abscessus isolate in 7H9 + ADC; details: 7H9 + ADC
# [4] = tested on: M. abscessus subsp. bolletii CCUG 50184; assay: MIC against M. abscessus isolate in 7H9 + ADC; details: 7H9 + ADC
# [5] = tested on: M. abscessus subsp. massiliense CCUG 48898; assay: MIC against M. abscessus isolate in 7H9 + ADC; details: 7H9 + ADC
# [6] = tested on: A. baumannii wild type (WT); assay: MIC against A. baumannii isolate in RPMI + FCS; details: RPMI + FCS
# A. baumannii Arr-2 = assay: microbe, parasite or virus in culture; details: RPMI + FCS
# [7] = tested on: A. baumannii RpoB H535Q mutant; assay: microbe, parasite or virus in culture; details: RPMI + FCS
# [8] = tested on: A. baumannii RpoB H535C mutant; assay: microbe, parasite or virus in culture; details: RPMI + FCS
# [9] = tested on: A. baumannii RpoB H535L mutant; assay: microbe, parasite or virus in culture; details: RPMI + FCS
# [10] = tested on: Enterococcus faecium (strain NCTC 12204); assay: MIC against E. faecium; details: strain NCTC 12204; CAMHB
# [11] = tested on: Enterococcus faecalis (strain ATCC 51575); assay: MIC against E. faecalis; details: CAMHB
# [12] = tested on: Staphylococcus epidermidis (strain ATCC 12228); assay: MIC against S. epidermidis; details: CAMHB
# [13] = tested on: Streptococcus pneumoniae (strain ATCC 49619); assay: MIC against S. pneumoniae; details: CAMHB + 5% laked horse blood
# [14] = tested on: Mycobacterium tuberculosis (H37Rv, strain ATCC 27294)
# [15] = tested on: Streptococcus pyogenes (strain IHMA 1117021); assay: MIC against S. pyogenes; details: CAMHB + 5% laked horse blood
# [16] = tested on: Hemophilus influenzae (strain ATCC 49247); assay: MIC against H. influenzae; details: Hemophilus test medium broth
# [17] = tested on: M. smegmatis (strain ATCC 700084); assay: MIC against M. smegmatis (90% growth inhibition, BacTiter-Glo); details: 7H9 + ADC, 20 hours
compound,measurement,setting,value
CO[C@H]1/C=C/O[C@@]2(C)Oc3c(C)c(O)c4c(c3C2=O)C(=O)C(N2CCOCC2)=C(NC(=O)/C(C)=C\C=C\[C@H](C)[C@H](O)[C@@H](C)[C@@H](O)[C@@H](C)[C@H](OC(=O)CC(=O)OCC2CCCN(C)C2)[C@@H]1C)C4=O (stereo partly drawn) [CGP 4832],"M. abscessus MIC in 7H9 + ADC, abscessus ATCC 19977",[1],4 µg/mL
same,"M. abscessus MIC in 7H9 + ADC, abscessus CCUG 71636",[2],2 µg/mL
same,"M. abscessus MIC in 7H9 + ADC, abscessus CCUG 71382",[3],8 µg/mL
same,"M. abscessus MIC in 7H9 + ADC, bolletii CCUG 50184",[4],8 µg/mL
same,"M. abscessus MIC in 7H9 + ADC, massiliense CCUG 48898",[5],4 µg/mL
same,"A. baumannii MIC in RPMI + FCS, WT",[6],8 µg/mL
same,"A. baumannii MIC in RPMI + FCS, Arr-2",A. baumannii Arr-2,4 µg/mL
same,"A. baumannii MIC in RPMI + FCS, RpoB H535Q",[7],>32 µg/mL
same,"A. baumannii MIC in RPMI + FCS, RpoB H535C",[8],>32 µg/mL
same,"A. baumannii MIC in RPMI + FCS, RpoB H535L",[9],>32 µg/mL
same,MIC E. faecium,[10],2000 µg/mL
same,MIC E. faecalis,[11],2000 µg/mL
same,MIC S. epidermidis,[12],≤2 µg/mL
same,MIC S. pneumoniae,[13],≤2 µg/mL
same,MIC M. tuberculosis,[14],3.6 µg/mL
same,MIC S. pyogenes,[15],8 µg/mL
same,MIC H. influenzae,[16],500 µg/mL
same,MIC M. smegmatis,[17],30 µg/mL
